Data set [1] deals with T1, Peroxisome proliferator-activated receptor alpha (Homo sapiens) (UniProt Q07869).
T1 sequence (whole entry): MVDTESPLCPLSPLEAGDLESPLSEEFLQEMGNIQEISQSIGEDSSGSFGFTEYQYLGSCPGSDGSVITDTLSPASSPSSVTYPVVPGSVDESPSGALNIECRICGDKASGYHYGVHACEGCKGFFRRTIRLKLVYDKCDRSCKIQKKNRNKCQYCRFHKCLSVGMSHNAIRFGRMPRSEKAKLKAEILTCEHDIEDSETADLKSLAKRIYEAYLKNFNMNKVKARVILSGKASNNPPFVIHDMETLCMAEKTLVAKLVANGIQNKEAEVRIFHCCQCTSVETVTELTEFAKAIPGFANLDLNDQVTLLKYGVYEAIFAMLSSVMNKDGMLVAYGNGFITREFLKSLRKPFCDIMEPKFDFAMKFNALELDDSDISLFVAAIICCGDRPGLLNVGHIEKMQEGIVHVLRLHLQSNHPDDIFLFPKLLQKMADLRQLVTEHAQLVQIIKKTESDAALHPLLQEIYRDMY
Briefly: Binding affinity to PPARalpha at 10 uM by competitive binding assay.

Data set [2] has as its target T2, Peroxisome proliferator-activated receptor delta (Homo sapiens, UniProt Q03181).
T2 sequence (Q03181 whole entry): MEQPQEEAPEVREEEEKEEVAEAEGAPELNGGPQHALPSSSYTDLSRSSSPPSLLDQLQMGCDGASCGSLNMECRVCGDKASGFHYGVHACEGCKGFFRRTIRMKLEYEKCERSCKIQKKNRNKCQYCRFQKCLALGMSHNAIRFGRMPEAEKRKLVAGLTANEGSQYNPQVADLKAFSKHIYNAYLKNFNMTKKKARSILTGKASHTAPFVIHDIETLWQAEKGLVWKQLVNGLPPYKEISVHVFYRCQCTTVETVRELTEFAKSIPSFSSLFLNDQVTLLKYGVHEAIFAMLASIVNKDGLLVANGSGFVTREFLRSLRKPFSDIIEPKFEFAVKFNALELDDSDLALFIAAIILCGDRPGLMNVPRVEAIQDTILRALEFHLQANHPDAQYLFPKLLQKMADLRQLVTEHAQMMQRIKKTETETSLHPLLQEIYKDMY
Description: Agonist activity at human PPARdelta expressed in COS-1 cells after 2 days by luciferase reporter gene transactivation assay. The data set is classed as functional, cell-based. (In a reporter assay the amount or activity of a reporter protein is the signal.)

In data set [3] the target is PPAR delta/gamma (Homo sapiens) (UniProt P37231+Q03181). Description: Selectivity ratio of EC50 for human PPARdelta to EC50 for human PPARgamma1.
The target of data set [4] is T1, Peroxisome proliferator-activated receptor alpha (Homo sapiens). Description: Agonist activity at human PPARalpha expressed in COS-1 cells at 10 uM after 1 day by luciferase reporter gene transactivation assay. The class given is functional, cell-based.
Data set [5] deals with Rattus norvegicus. Briefly: Antidiabetic activity in po dosed fatty Wister rat assessed as reduction of triglyceride level administered once daily for 7 days. The class given is functional.
For the next data set, the species on record is Homo sapiens. Briefly: Selectivity ratio of EC50 for human PPARalpha to EC50 for human PPARgamma1.
The target in data set [6] is T3, Peroxisome proliferator-activated receptor gamma (Homo sapiens, UniProt P37231).
T3 sequence (P37231 whole entry): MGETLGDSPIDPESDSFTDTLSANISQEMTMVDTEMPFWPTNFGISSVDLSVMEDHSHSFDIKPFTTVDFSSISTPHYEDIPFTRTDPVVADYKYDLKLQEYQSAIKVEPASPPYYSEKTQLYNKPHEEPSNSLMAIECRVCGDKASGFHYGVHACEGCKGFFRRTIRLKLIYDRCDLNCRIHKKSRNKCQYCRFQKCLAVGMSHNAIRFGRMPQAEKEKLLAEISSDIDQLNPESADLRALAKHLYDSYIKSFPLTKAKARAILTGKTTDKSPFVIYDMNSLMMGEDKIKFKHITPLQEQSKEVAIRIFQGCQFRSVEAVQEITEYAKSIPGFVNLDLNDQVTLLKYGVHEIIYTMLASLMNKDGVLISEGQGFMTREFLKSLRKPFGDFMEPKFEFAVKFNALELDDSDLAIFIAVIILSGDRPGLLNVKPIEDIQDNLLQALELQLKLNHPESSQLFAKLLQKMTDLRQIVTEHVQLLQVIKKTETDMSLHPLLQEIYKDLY
Briefly: Displacement of [3H]-AD-5061 from human GST-tagged PPARgamma.

Data set [7] in a line: Clearance in rat liver microsomes at 1 umol/L after 20 mins by HPLC analysis. The data set is classed as ADME, Microsome. To be noted: read-out: CLH. (In general: Liver microsomes are a subcellular fraction often used to study metabolism.)
Data set [8] deals with T4, Peroxisome proliferator-activated receptor delta (Homo sapiens) (UniProt Q03181).
T4 sequence (whole entry): T2 sequence (Q03181 whole entry)
Description: Binding affinity to PPARdelta at 10 uM by competitive binding assay.

For data set [9], the system named is Rattus norvegicus. Description: Antidiabetic activity in po dosed fatty Wister rat assessed as reduction of plasma glucose level administered once daily for 7 days. The data set is classed as functional.
Data set [10] has as its target T5, Peroxisome proliferator-activated receptor alpha (Homo sapiens, UniProt Q07869).
T5 sequence (Q07869 whole entry): T1 sequence (whole entry)
Description: Agonist activity at human PPARalpha expressed in COS-1 cells after 1 day by luciferase reporter gene transactivation assay. The data set is classed as functional, cell-based.

A short description of data set [11]: Clearance in human liver microsomes at 1 umol/L after 20 mins by HPLC analysis. The class given is ADME, Microsome. The following applies: read-out: CLH.

The results in this text go back to ChEMBL document CHEMBL1932914, “A new class of non-thiazolidinedione, non-carboxylic-acid-based highly selective peroxisome proliferator-activated receptor (PPAR) γ agonists: design and synthesis of benzylpyrazole acylsulfonamides” (Bioorg Med Chem, 2012).

Calls of active or inactive are those of the source. The calls are words filed in the database; no cut-off is given here.

Usually EC50 stands for the concentration giving half of the maximal effect. A low value points to an effect from little substance. As a reminder, the IC50 is the midpoint of a concentration-inhibition curve. In the case of `CC(C)CCS(=O)(=O)NC(=O)/C=C/c1cc(OC(C)C)nn1Cc1ccc(C(F)(F)F)cc1Cl`, the result in data set [1] and in data set [8] was inactive. Moreover, the EC50 in data set [2] and in data set [10] was over 10 µM each time. Moreover, the Ratio EC50 (in data set [3]; in the data set filed under Homo sapiens) was over 500 throughout. Also, the figures for the Activity (in data set [4]; in the data set with Rattus norvegicus [5]; in the data set with Rattus norvegicus [9]) were 48%, “Dose-dependent effect” and “Dose-dependent effect”, respectively. In addition, the values for the ED25 in the data set on Rattus norvegicus [5] (168 h) and in the data set on Rattus norvegicus [9] (168 h) were 0.09 mg/kg and 0.21 mg/kg, respectively. Further, in data set [6], the IC50 was found to be 0.015 µM. Further, the microsomal CLint at 1 µM in [7] is 51 µL/min/mg; in data set [11], 32 µL/min/mg.
